“Also recorded” adds a separate entry of the source.

Here are results for 17 compounds from patent US6989263B1, “Method for identifying and using compounds that inactivate HIV-1 and other retroviruses by attacking highly conserved zinc fingers in the viral nucleocapsid protein” (The United States of America as represented by the …, priority 1994, dated 2006).

In the first assay the target is T1, p7NC (Human immunodeficiency virus type 1 group M subtype B, UniProt P05888).
T1 construct: The NC protein of HIV-1 (MN) p7NC was expressed in E. coli; made in house; host or cells: E. coli (vector pMAL-c)
Briefly: HPLC analysis of reaction products of purified p7NC with reagent.
Details: not given
Details: key to Protein (HPLC): reaction products / Protein (HPLC): reaction rate: formation of non-native, intra-protein disulfide links (designated “Disulfides”); some of the reagents form adducts with the cysteine residues as well (designated “Adducts”); slow: “Slow” reactions are those in which greater than 10% of the p7NC protein remained in its native form after the 10 minute incubation with reagent; very slow: “Very slow” reactions are those in which greater than 50% of the p7NC protein remained in its native form after the 10 minute incubation with reagent; fast: “Fast” reactions result in complete transformation of the p7NC protein to non-native conformations during the 10 minute incubation period. The assay is classed as biochemical, HIV-1. An excerpt: Highly purified retroviral NC proteins can be produced by expression from vectors generated through recombinant DNA technology. These proteins when reconstituted with zinc (see, Summers, et al., Protein Science 1:563–567 (1992) for methods), provide the source of the NC proteins containing the zinc fingers that are the targets for attack by the compounds of this invention. When the zinc fingers in NC proteins react with identified compounds, the reaction produces a covalent change in the NC protein, and the modified protein can be separated from the unreacted protein by, for example, reversed phase HPLC.
Samples of p7NC and apo-p7 were reacted with varying amounts of cupric chloride and resulting products separated by HPLC. The reactions were carried out using 44.3 μM protein (p7NC or apo-p7) in 0.1 M Tris-HCl, pH 7.4, for 6 minutes at room temperature with varying concentrations of CuCl2 to achieve the indicated ratios of reactants, in a final volume of 0.7 ml. Chromatography was carried out on the resulting products at pH 2 (0.05% trifluoroacetic acid) on μBondapak™ C-18 (3.9×300 mm) at 1.0 ml/minute using an acetonitrile gradient (0–17%, 20 ml; 17–20%, 60 ml; 20–60%, 10 ml). Elution positions of unreacted protein (p7NC or apo-p7) are indicated as apo-p7.
A two-fold excess of NOBA was reacted with p7NC, and the products were separated by HPLC (FIG. 10) as described above for Cu^+2 and p7NC. Elution positions for the reactants (NOBA and unreacted p7NC) and products, reacted p7NC, NOBA, HABA and AzoxyBA are indicated and an elution profile is included in FIG. 10. NOBA and AzoxyBA were supplied by Octamer, Inc. (Mill Valley, Calif.) and used as HPLC standards.
The disulfide reagent of choice (each available from the Aldrich Chemical Company (Milwaukee, Wis.)) was incubated for 10 minutes with purified p7NC protein (63 μM) at a ratio of 6 molecules of reagent to 1 molecule of NC protein (there are 6 cysteine thiols per NC protein). The formation of non-native protein conformations was monitored by HPLC as described above. […] Generally, the inactivation proceeds by formation of non-native, intra-protein disulfide links (designated “Disulfides”), but some of the reagents form adducts with the cysteine residues as well (designated “Adducts”). “Slow” reactions are those in which greater than 10% of the p7NC protein remained in its native form after the 10 minute incubation with reagent. “Very slow” reactions are those in which greater than 50% of the p7NC protein remained in its native form after the 10 minute incubation with reagent. “Fast” reactions result in complete transformation of the p7NC protein to non-native conformations during the 10 minute incubation period.
Consider `NC(=O)SCC(=O)NNc1ccccc1` [2-(Carbamoylthio)-Acetic Acid 2-Phenylhydrazide], for which the “reaction with purified p7NC (HPLC), in words” value is recorded as “caused intra-chain disulfide formation”.

The assay is the same for the next values; noted with them: 63 μM p7NC, 6 reagent : 1 protein, 10 minutes.
As for `O[C@@H]1CSSC[C@H]1O` (relative stereo) [Trans-1,2-Dithiane-4,5-Diol], the “Protein (HPLC): reaction products” value is recorded as “Disulfides” and the “Protein (HPLC): reaction rate” value is “(slow) (“Slow” reactions are those in which greater than 10% of the p7NC protein remained in its native form after the 10 minute incubation with reagent)”.

Take `Nc1c(SSc2ccc3ccccc3c2N)ccc2ccccc12` [2,2-Dithiobis(1-Naphtylamine)]: the “Protein (HPLC): reaction products” value was “Disulfides; also recorded: Adducts” and the “Protein (HPLC): reaction rate” value is “(fast)”.

Turning to `COc1cccc(SSc2cccc(OC)c2OC)c1OC` [2,3-Dimethoxyphenyl Disulfide], the “Protein (HPLC): reaction products” value is listed as “Adducts”.

As to `Clc1cc(Cl)c(SSc2cc(Cl)c(Cl)cc2Cl)cc1Cl` [2,4,5-Trichlorophenyl Disulfide], the “Protein (HPLC): reaction products” value was “Disulfides”.

Consider `Cc1ccc(SSc2ccc([N+](=O)[O-])cc2[N+](=O)[O-])cc1` [2,4-Dinitrophenyl p-Tolyl Disulfide], for which the “Protein (HPLC): reaction products” value was “Disulfides; also recorded: Adducts” and the “Protein (HPLC): reaction rate” value is listed as “(fast)”.

Turning to `CCN(CC)CCSSCCN(CC)CC` [2-(Diethylamino)ethyl Disulfide], the “Protein (HPLC): reaction products” value is on record as “Disulfides”.

In the case of `CCOC(=O)Nc1ccccc1SSc1ccccc1NC(=O)OCC` [2-(Ethoxycarboxamido)phenyl Disulfide], the “Protein (HPLC): reaction products” value is given as “Disulfides; also recorded: Adducts”.

In the case of `CC(=O)Nc1ccccc1SSc1ccccc1NC(C)=O` [2-Acetamidophenyl Disulfide], the “Protein (HPLC): reaction products” value is “Disulfides; also recorded: (Adducts)”.

In the case of `Nc1cc(Cl)ccc1SSc1ccc(Cl)cc1N` [2-Amino-4-Chlorophenyl Disulfide], the “Protein (HPLC): reaction products” value is recorded as “Disulfides; also recorded: Adducts” and the “Protein (HPLC): reaction rate” value was “(fast)”.

In the case of `Nc1ccccc1SSc1ccccc1N` [2-Aminophenyl Disulfide], the “Protein (HPLC): reaction products” value was “Disulfides; also recorded: Adducts” and the “Protein (HPLC): reaction rate” value was “(slow) (“Slow” reactions are those in which greater than 10% of the p7NC protein remained in its native form after the 10 minute incubation with reagent)”.

Turning to `O=[N+]([O-])c1ccc(Cl)c(SSc2cc([N+](=O)[O-])ccc2Cl)c1` [2-Chloro-5-Nitrophenyl Disulfide], the “Protein (HPLC): reaction products” value is given as “Disulfides”.

With `c1ccc2nc(SSc3ccc4ccccc4n3)ccc2c1` [2-Quinolyl Disulfide], the “Protein (HPLC): reaction products” value is on record as “Disulfides; also recorded: Adducts” and the “Protein (HPLC): reaction rate” value was “(slow) (“Slow” reactions are those in which greater than 10% of the p7NC protein remained in its native form after the 10 minute incubation with reagent)”.

With `O=C(O)CCSSCCC(=O)O` [3,3-Dithiodipropionic Acid], the “Protein (HPLC): reaction products” value was “Disulfides” and the “Protein (HPLC): reaction rate” value is listed as “(slow) (“Slow” reactions are those in which greater than 10% of the p7NC protein remained in its native form after the 10 minute incubation with reagent)”.

With `O=[N+]([O-])c1cccc(SSc2cccc([N+](=O)[O-])c2)c1` [3-Nitrophenyl Disulfide], the “Protein (HPLC): reaction products” value is recorded as “Disulfides”.

In the case of `CC(=O)Nc1ccc(SSc2ccc(NC(C)=O)cc2)cc1` [4-Acetamidophenyl Disulfide], the “Protein (HPLC): reaction products” value is given as “Disulfides” and the “Protein (HPLC): reaction rate” value is given as “(slow) (“Slow” reactions are those in which greater than 10% of the p7NC protein remained in its native form after the 10 minute incubation with reagent)”.

In the case of `O=[N+]([O-])c1cc(SSc2ccc(Cl)c([N+](=O)[O-])c2)ccc1Cl` [4-Chloro-3-Nitrophenyl Disulfide], the “Protein (HPLC): reaction products” value is listed as “Disulfides; also recorded: Adducts”.

Still in this assay, the particulars now being: after a 10 minute incubation.
On to `NC(=O)SCC(=O)NNc1ccccc1` [2-(Carbamoylthio)-Acetic Acid 2-Phenylhydrazide], for which the “p7NC species in non-native conformations” value is “most”.
